Assay results taken from patent US20210356447A1, “EFFICACY EVALUATION METHOD OF DRUG FOR REVERSING TUMOR MULTIDRUG RESISTANCE” (JINAN UNIVERSITY, priority 2018, published 2021).

Tested on: Liver cancer HepG2/ADR tumor-transplanted nude mouse model
Experiment: Callback rate of serum and urine metabolic markers (targeted metabonomics, LC-MS/MS) in drug-resistant liver cancer nude mouse model
Format: in vivo, nude mice (nu/nu-BALB/c)
[1] = serum metabolic marker, 3 mg/kg, 0.2 ml tail vein injection once every three days, seven times, HepG2/ADR nude mice
[2] = urine metabolic marker, 3 mg/kg, 0.2 ml tail vein injection once every three days, seven times, HepG2/ADR nude mice

Procedure: Liver cancer HepG2/ADR tumor-transplanted nude mouse models were firstly established and divided into four groups with 30 mice in each group, and after one week of successful establishment of the model, the mice were administered in different methods:
Metabolic markers were quantified by a targeted metabonomics technology, and an efficacy of a drug for reversing tumor multidrug resistance to be evaluated was evaluated by a concentration of each metabolic marker.
Cell transplanting: ten nude mice without thymus, including five male mice and five female mice, were selected, after 10-day adaptation period, 0.2 ml of HepG2/ADR cells (cell concentration: 6×10^7 cells/ml) were subcutaneously injected into each nude mouse with a 23G sterile needle, and in order to prevent tumor cells from being destroyed and matrix gel from being solidified in the period, the injection should be completed as soon as possible. Before injection, the needle was shaken left and right to form an expanded subcutaneous cyst (because if the injection was performed to a specific area by not shaking the needle, the mixture could form a large cell mass, and ineffective perfusion of nutrients in a core of the mass into the cells could result in subsequent growth defects), and when the needle was taken out, the injector was rotated to prevent leakage of cell sap. After subcutaneous injection, the matrix gel was irreversibly solidified to form a red bulge, about 10 days later, the solidified matrix gel was eliminated, and the tumor cells were successfully inoculated, and after a tumor mass grew for three weeks, nude mice with the tumor of the same size (about 7 mm in diameter) were selected. The subcutaneous tumor mass was taken out, a peripheral part of the tumor mass was divided into small tumor masses of 2×2×2 mm, after the nude mice (nu/nu-BALB/c, half male nude mice and half female nude mice at six weeks old, n=30) were anesthetized with isoflurane, the small tumor masses were subcutaneously implanted into shoulders of the nude mice to make the tumor masses of liver cancer model mice similar in size and shape, thus reducing experimental errors caused by different tumor mass sizes. After successful transplantation, growth statuses of the model nude mice were observed and recorded every day, weights of the nude mice were recorded every two days, and tumor sizes (length and width) were measured with a vernier caliper.
Healthy group: only normal saline was administrated to 30 healthy nude mice without being inoculated with any tumor cells once every three days for a total of seven times, with a dose of 0.2 ml each time by an administration method of tail vein injection.
Negative control group: only normal saline was administrated to 30 liver cancer HepG2/ADR tumor-transplanted nude mouse models once every three days for a total of seven times, with a dose of 0.2 ml each time by an administration method of tail vein injection.
Mass spectra of standard substances of a-linolenic acid, 3-methylglutaric acid, 17-hydroxystearic acid, xanthurenic acid, indole-2-carboxylic acid and 3-furoic acid were measured to determine mass-spectrometric detection conditions of each metabolic marker.
A series of linear concentration samples of the standard substance of each metabolic marker were respectively measured using the detection conditions above to obtain a relationship between a peak area of a characteristic fragment particle peak and a concentration of each metabolic marker, and linear regression was performed to obtain a linear regression equation.

Structure (SMILES)	Callback rate, 3-methylglutaric acid [1]	Callback rate, A-linolenic acid [1]	Callback rate, 3-furoic acid [2]	Callback rate, Xanthurenic acid [2]	Callback rate, indole-2-carboxylic acid [2]	effect of reversing tumor drug resistance, judged from the callback rates (result in words, comparison of groups in HepG2/ADR nude mice)
COc1cccc2c1C(=O)c1c(O)c3c(c(O)c1C2=O)C[C@@](O)(C(=O)CO)C[C@@H]3O[C@H]1C[C@H](N)[C@H](O)[C@H](C)O1 [Positive control group, doxorubicin]	13.69%	17.56%	12.30%	19.08%	12.73%	
O=c1ccc2cc3ccoc3cc2o1 [psoralen]						really has the effect of reversing tumor drug resistance
